Measured values as given in patent publication US20140066385A1, “METHOD FOR TREATING CANCER BY COMBINED USE OF DRUGS” (Astellas Pharma Inc., priority 2011, published 2014).

Tests used:
[1] = system: human non-small cell lung cancer (Calu-6); test: Example 4: administration timing of FK330 with paclitaxel in Calu-6 tumor-bearing mice; format: in vivo, nude mice; settings: Day 55; for tumor volume at the end of the study: mean±SEM
Protocol: Preparation of the test substances and conditioning of the cells were carried out in the same manner as in Example 2.
(§1) Five-week old male nude mice (CAnN Cg-Foxn1nu/CrlCrlj(nu/nu)) were purchased from Charles River Laboratories Japan, Inc. (Japan, Kanagawa). The animals were raised under specific pathogen-free (SPF) conditions throughout the test period by feeding standard feedstuff and drinking water. The cultured cells were subcutaneously inoculated into the dorsal region of the nude mice at a concentration of 3×10^6 cells/0.1 mL/mouse. Nude mice which had the tumor volumes (major axis×[minor axis]^2×0.52) ranging from 142.1 mm^3 to 359.1 mm^3 were assigned by using SAS to minimize the fluctuation in the tumor volume between the groups and within the group.
The first day of administration was designated as Day 0, and observation was made until Day 55. The respective groups (n=5 or 6) were treated as follows. FK330 was orally gavaged in an amount of 5 mL/kg, and paclitaxel was administered intravenously through the tail vein in an amount of 10 mL/kg. Paclitaxel was continuously administered from Day 0 to Day 5, was subsequently withdrawn for 22 days, and then was continuously administered for 5 days from Day 28 to Day 32.
Paclitaxel single administration group: Paclitaxel 10 mg/kg/day (from Day 0 to Day 5, and from Day 28 to Day 32)
Concomitant administration, FK330 100 mg/kg bid (200 mg/kg/day)+paclitaxel 10 mg/kg/day (from Day 0 to Day 5, and from Day 28 to Day 32)
Sequential administration, FK330 100 mg/kg bid (200 mg/kg/day)+paclitaxel 10 mg/kg/day (from Day 0 to Day 5, and from Day 28 to Day 32)
Continuous administration, FK330 100 mg/kg bid (200 mg/kg/day)+paclitaxel 10 mg/kg/day (from Day 0 to Day 5, and from Day 28 to Day 32)
FK330 was orally gavaged (5 mL/kg) twice a day at an interval of 6 to 8 hours. In the Concomitant administration, FK330 was administered on the days of administration of paclitaxel (from Day 0 to Day 5, and from Day 28 to Day 32); and in the […] administration, FK330 was administered on the withdrawal days after the days of administration of paclitaxel (from Day 6 to Day 27, and from Day 33 to Day 55), while the continuous administration was carried out for all days from the day of experiment initiation to the day of experiment completion. Paclitaxel was administered by intravenous bolus injection (10 mL/kg) through the tail vein 2 to 4 hours after the administration of FK330.
Every 3 to 4 days, the body weight and the tumor diameters, determined by using a digital caliper, were measured. The tumor volume was calculated from the calculation formula for ellipsoid volume of (major axis×[minor axis]^2×0.52).

[2] = system: tumor tissues in human lung cancer cell line Calu-6 tumor-bearing mice; test: Example 8: immunochemical staining of iNOS, macrophage (F4/80) and nitrotyrosine in Calu-6 tumor tissue; format: in vivo, nude mice
Excerpt: The dose of FK330 is expressed in terms of the weight of a simple substance (non-hydrate). A paclitaxel injectable preparation (paclitaxel injection liquid “Sawai”) was purchased from Sawai Pharmaceutical Co., Ltd., and was used as paclitaxel. Rat anti-mouse F4/80 antigen monoclonal antibody, rabbit anti-iNOS polyclonal antibody, and rabbit anti-nitrotyrosine antibody were respectively purchased from AbD Serotec (Oxford, UK), Santa Cruz Biotechnology, Inc. (Santa Cruz, Calif., US), and Millipore Corp. (Billerica, Mass., USA) and used.
FK330 was suspended (20 mg/mL) in a 0.5% aqueous methyl cellulose solution (0.5% MC) and orally administered. Paclitaxel was prepared with physiological saline for injection (Otsuka Pharmaceutical Group) to a concentration of 1 mg/mL at the time of use.
Human lung cancer-derived Calu-6 (HTB-56) was obtained from American Type
Culture Collection (VA, USA). The cells were cultured under the conditions of 37° C. and 5% CO2 by using RPMI1640 medium containing 10% heat-inactivated fetal bovine serum (FBS). The cells were harvested with trypsin and were suspended in PBS at 6×10^7 cells/mL, and the suspension was mixed with an equal amount of Matrigel (trade name) Basement Membrane Matrix (manufactured by Becton Dickinson Co., Bedford, Mass., USA).
as §1, with “axis]^2×0.5)” for “axis]^2×0.52)”, “136.8” for “142.1”, “248.5” for “359.1”
Drug administration was initiated from the first day of administration (Day 0). The respective groups (n=5) were treated as follows. FK330 was orally gavaged in an amount of 5 mL/kg from Day 0 to Day 6, and paclitaxel was intravenously administered through the tail vein in an amount of 10 mL/kg from Day 0 to Day 5.
FK330 single administration group: FK330 100 mg/kg bid (200 mg/kg/day, from Day 0 to Day 6)
Paclitaxel single administration group: Paclitaxel 10 mg/kg/day (from Day 0 to Day 5)
Combined use group: FK330 100 mg/kg bid (200 mg/kg/day, from Day 0 to Day 6)+paclitaxel 10 mg/kg/day (from Day 0 to Day 5)
FK330 was orally gavaged (5 mL/kg) twice a day at an interval of 6 to 8 hours. Paclitaxel was administered by intravenous bolus injection (10 mL/kg) through the tail vein 1 to 4 hours after the administration of FK330.
On Day 6, the tumor tissues were harvested from the mice. Immersion fixation was carried out at 4° C. for 12 hours with a 4% para-formaldehyde-phosphate buffer solution (Wako Pure Chemical Industries, Ltd.). After the tissue fixation, according to the conventional method, sucrose replacement was carried out using 10%, 15% and 20% sucrose/phosphate buffer solutions in a stepwise manner at 4° C. After completion of the replacement, the cancer tissues were embedded in O.C.T. Compound (Toronto Research Chemicals, Inc., Toronto, Canada), and frozen blocks were prepared with dry ice/acetone and stored at −80° C.
Frozen sections at 5 μm thickness were prepared by a cryostat (Sakura Finetech Japan Co., Ltd.) and were air-dried. The dried frozen sections were washed with a 4% para-formaldehyde-phosphate buffer solution, and then in order to inactivate the endogenous peroxidase activity, the sections were treated for 30 minutes with 0.3% hydrogen peroxide/methanol. Mouse macrophage, iNOS and nitrotyrosine staining was carried out by the following procedure. In regard to the iNOS and nitrotyrosine staining, antigen retrieval was carried out by microwave irradiation (3 minutes/500 W) before the immunochemical staining. […]

[3] = combined use: FK330 100 mg/kg bid p.o. Day 0 to Day 6 + paclitaxel 10 mg/kg/day, Day 6
[4] = paclitaxel 10 mg/kg/day i.v. Day 0 to Day 5 alone, tumor harvested Day 6

Structure (SMILES)	tumor volume reduction ratio compared with the paclitaxel-only group ([1]; concomitant administration of FK330 100 mg/kg bid + paclitaxel)	tumor volume at the end of the study ([1]; concomitant administration of paclitaxel and FK330 100 mg/kg bid (FK330 on paclitaxel days only))	tumor volume at the end of the study ([1]; continuous administration of FK330 100 mg/kg bid (all days) + paclitaxel)	tumor volume reduction ratio compared with the paclitaxel-only group ([1]; continuous administration of FK330 100 mg/kg bid + paclitaxel)	tumor volume at the end of the study ([1]; sequential administration of FK330 100 mg/kg bid (on paclitaxel withdrawal days) + paclitaxel)	tumor volume reduction ratio compared with the paclitaxel-only group ([1]; sequential administration of FK330 100 mg/kg bid + paclitaxel)	iNOS protein expression in the tumor [2, 3]	macrophage infiltration in the tumor [2, 3]	nitrotyrosine production in the tumor [2, 3]	tumor volume at the end of the study ([1]; paclitaxel-only group, 10 mg/kg/day i.v. Day 0-5 and Day 28-32)	amount of nitrotyrosine (major end-product of NO) in the tumor tissue [2, 4]	iNOS protein expression in the tumor tissue [2, 4]	infiltration of macrophages (F4/80) in the tumor tissue [2, 4]
O=C(/C=C/c1ccc(Cl)cc1)N[C@@H](Cc1ccccn1)C(=O)NCC(=O)N1CCC(Oc2cc(C(F)(F)F)ncn2)CC1 [FK330, N^2-[(2E)-3-(4-chlorophenyl)-2-propenoyl]-N-[2-oxo-2-(4-{[6-(trifluoromethyl)pyrimidin-4-yl]oxy}piperidin-1-yl)ethyl]-3-pyridin-2-yl-L-alaninamide]	54.5%	559.8±161.8 mm^3	168.5±66.0 mm^3	86.3%	1150.9±264.9 mm^3	6.4%	did not affect	did not affect	suppressed				
CC(=O)O[C@H]1C(=O)[C@@]2(C)[C@H]([C@H](OC(=O)c3ccccc3)[C@]3(O)C[C@H](OC(=O)[C@H](O)[C@@H](NC(=O)c4ccccc4)c4ccccc4)C(C)=C1C3(C)C)[C@]1(OC(C)=O)CO[C@@H]1C[C@@H]2O [paclitaxel, reference compound]										1229.2±289.6 mm^3	increased	very clearly accentuated	clearly recognized
